Laboratory results as given in patent US8435978B2, “Substituted sulfonamide compounds” (Gruenenthal GmbH, priority 2006, dated 2013).
Counter-ions that a name gives are not always drawn.

Assays:
B1R receptor of the rat = molecular target: T1, B1R receptor of the rat (Rattus norvegicus, UniProt P97583); assay: Functional study on the bradykinin receptor 1 (B1R), FLIPR Ca2+ assay, rB1R cells; assay type: cell-based; conditions: agonist Des-Arg9-bradykinin 100 nM, % inhibition compared with the maximum achievable inhibition; for inhibition at 10 µM: CHO-K1, test substance 10 μM, read-out: B1R Antagonism, rat [10 μM] % Inhibition; for B1R Antagonism, rat [10 μM] % Inhibition: test substance 10 μM, rB1R CHO K1 cells
T1 construct: host or cells: CHO K1 cells (Chinese hamster ovary), stably transfected
T1 sequence (P97583 1-337): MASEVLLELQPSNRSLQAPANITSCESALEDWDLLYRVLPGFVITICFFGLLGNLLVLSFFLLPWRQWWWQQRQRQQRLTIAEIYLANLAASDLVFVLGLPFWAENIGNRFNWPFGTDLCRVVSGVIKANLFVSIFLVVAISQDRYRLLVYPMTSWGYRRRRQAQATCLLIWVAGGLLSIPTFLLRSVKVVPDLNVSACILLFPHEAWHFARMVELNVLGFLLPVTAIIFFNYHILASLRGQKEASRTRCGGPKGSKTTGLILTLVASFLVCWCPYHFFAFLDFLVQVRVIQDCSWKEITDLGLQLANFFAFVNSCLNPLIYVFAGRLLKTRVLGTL
Method in brief: (§1)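 FLIPR Ca2+ read-out (Fluo-4, peak fluorescence) in stably transfected CHO K1 cells. Compounds at 10 μM, then 10 min later agonist challenge: human B1R with Lys-Des-Arg9-bradykinin 0.5 nM, rat B1R with Des-Arg9-bradykinin 100 nM; reported as % activation or % of maximal inhibition.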

human B1R receptor = molecular target: T2, human B1R receptor (Homo sapiens, UniProt P46663); assay: Functional study on the bradykinin receptor 1 (B1R), FLIPR Ca2+ assay, hB1R cells; assay type: cell-based; conditions: agonist Lys-Des-Arg9-bradykinin 0.5 nM, % inhibition compared with the maximum achievable inhibition; for inhibition at 10 µM: CHO-K1, test substance 10 μM, read-out: B1R Antagonism, human [10 μM] % Inhibition; for B1R Antagonism, human [10 μM] % Inhibition: test substance 10 μM, hB1R CHO K1 cells
T2 construct: host or cells: CHO K1 cells (Chinese hamster ovary), stably transfected
T2 sequence (P46663 1-353): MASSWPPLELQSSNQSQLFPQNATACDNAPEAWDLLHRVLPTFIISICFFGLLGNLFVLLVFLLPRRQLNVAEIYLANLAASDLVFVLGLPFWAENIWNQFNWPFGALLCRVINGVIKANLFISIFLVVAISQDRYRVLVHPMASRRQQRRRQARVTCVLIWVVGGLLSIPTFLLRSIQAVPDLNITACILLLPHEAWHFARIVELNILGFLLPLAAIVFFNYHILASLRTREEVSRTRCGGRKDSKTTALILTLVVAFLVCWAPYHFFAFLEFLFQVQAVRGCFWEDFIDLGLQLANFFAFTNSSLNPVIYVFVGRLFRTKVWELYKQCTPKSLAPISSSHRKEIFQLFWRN
Method in brief: as §1

| SMILES | inhibition at 10 µM (B1R receptor of the rat) [%] | inhibition at 10 µM (human B1R receptor) [%] | B1R Antagonism, rat [10 μM] % Inhibition (B1R receptor of the rat) [%] | B1R Antagonism, human [10 μM] % Inhibition (human B1R receptor) [%] |
| --- | --- | --- | --- | --- |
| CN(C)CCN(Cc1ccccc1)C(=O)COCC1CCCCN1S(=O)(=O)c1c(Cl)cccc1Cl (stereo not shown) [Example 489, N-benzyl-2-((1-(2,6-dichlorophenylsulfonyl)piperidin-2-yl)methoxy)-N-(2-(dimethylamino)ethyl)acetamide] | 100 | 99.3 |  |  |
| O=C(COCC1CCCN1S(=O)(=O)c1c(Cl)cccc1Cl)N1CCN(c2ccc(Cl)c(Cl)c2)CC1 (stereo not shown) [Example 356, 1-(4-(3,4-dichlorophenyl)piperazin-1-yl)-2-((1-(2,6-dichlorophenylsulfonyl)pyrrolidin-2-yl)methoxy)ethanone] | 103 | 43 |  |  |
| COc1cc(C)c(S(=O)(=O)N2CCCCC2COCC(=O)NCc2ccc(CN3CCN(C)CC3)cc2)c(C)c1 (stereo not shown) [Example 7, 2-[1-(4-methoxy-2,6-dimethyl-phenylsulfonyl)-piperidin-2-ylmethoxy]-N-[4-(4-methyl-piperazin-1-ylmethyl)-benzyl]-acetamide] | 99.3 | 102 |  |  |
| O=C(COCC1CCCN1S(=O)(=O)c1c(Cl)cc(Cl)cc1Cl)N(C1CC1)C1CCN(Cc2ccccc2)CC1 (stereo not shown) [Example 334, N-(1-benzylpiperidin-4-yl)-N-cyclopropyl-2-((1-(2,4,6-trichlorophenylsulfonyl)pyrrolidin-2-yl)methoxy)acetamide] | 101 | 107 |  |  |
| COc1cc(C)c(S(=O)(=O)N2CCCCC2COCC(=O)N2CCOC(c3cccnc3)C2)c(C)c1 (stereo not shown) [Example 207, 2-((1-(4-methoxy-2,6-dimethylphenylsulfonyl)piperidin-2-yl)methoxy)-1-(2-(pyridin-3-yl)morpholin)ethanone] |  |  | 100.16 | 101.93 |
| O=C(COCC1CCCCN1S(=O)(=O)c1c(Cl)cccc1Cl)N1CCN(Cc2ccc(Cl)c(Cl)c2)CC1 (stereo not shown) [Example 405, 1-(4-(3,4-dichlorobenzyl)piperazin-1-yl)-2-((1-(2,6-dichlorophenylsulfonyl)piperidin-2-yl)methoxy)ethanone] | 100 | 98.6 |  |  |
| CN1CCC(CN2CCN(C(=O)COC[C@@H]3Cc4ccccc4CN3S(=O)(=O)c3ccc(Cl)cc3Cl)CC2)CC1 [Example 184, (S)-2-((2-(2,4-dichlorophenylsulfonyl)-1,2,3,4-tetrahydroisoquinolin-3-yl)methoxy)-1-(4-((1-methylpiperidin-4-yl)methyl)piperazin-1-yl)ethanone] | 99 | 105 |  |  |
| COc1cc(C)c(S(=O)(=O)N2CCC[C@@H]2COCC(=O)N2CCN(C3CCN(C)CC3)CC2)c(C)c1C [Example 140, (R)-2-((1-(4-methoxy-2,3,6-trimethylphenylsulfonyl)pyrrolidin-2-yl)methoxy)-1-(4-(1-methylpiperidin-4-yl)piperazin-1-yl)ethanone dihydrochloride] | 80.7 | 100 |  |  |
| COc1cc(C)c(S(=O)(=O)N2CCCCC2COCC(=O)NCc2ccc(N3CCN(C)CC3)cc2)c(C)c1 (stereo not shown) [Example 434, 2-((1-(4-methoxy-2,6-dimethylphenylsulfonyl)piperidin-2-yl)methoxy)-N-(4-(4-methylpiperazin-1-yl)benzyl)acetamide] | 101 | 104 |  |  |
| O=C(COCC1CCCN1S(=O)(=O)c1c(Cl)cc(Cl)cc1Cl)N1CCC(N2CCCC2)CC1 (stereo not shown) [Example 296, 1-(4-(pyrrolidin-1-yl)piperidin-1-yl)-2-((1-(2,4,6-trichlorophenylsulfonyl)pyrrolidin-2-yl)methoxy)ethanone] | 99.3 | 106 |  |  |
| Cc1ccccc1Oc1cccc(S(=O)(=O)N2CCCCC2COCC(=O)N2CCN(C3CCN(C)CC3)CC2)c1 (stereo not shown) [Example 131, 1-(4-(1-methylpiperidin-4-yl)piperazin-1-yl)-2-((1-(3-(o-tolyloxy)phenylsulfonyl)piperidin-2-yl)methoxy)ethanone] | 95.4 | 82.1 |  |  |
| COc1cc(C)c(S(=O)(=O)N2Cc3ccccc3C[C@H]2COCC(=O)N2CCN(C3CCN(C)CC3)CC2)c(C)c1 [Example 127, (S)-2-((2-(4-methoxy-2,6-dimethylphenylsulfonyl)-1,2,3,4-tetrahydroisoquinolin-3-yl)methoxy)-1-(4-(1-methylpiperidin-4-yl)piperazin-1-yl)ethanone] | 93.7 | 102 |  |  |
| O=C(COCC1CCCN1S(=O)(=O)c1ccc(Cl)c(Cl)c1)N1CCN(c2ccccc2)CC1 (stereo not shown) [Example 89, 2-[1-(3,4-dichloro-phenylsulfonyl)-pyrrolidin-2-ylmethoxy]-1-(4-phenyl-piperazin-1-yl)-ethanone] | 0 | 41.3 |  |  |
| O=C(COCC1CCCN1S(=O)(=O)c1ccc(Cl)c(Cl)c1)N1CCN(CC2CCCCC2)CC1 (stereo not shown) [Example 54, 1-(4-cyclohexylmethyl-piperazin-1-yl)-2-[1-(3,4-dichloro-phenylsulfonyl)-pyrrolidin-2-ylmethoxy]-ethanone] | 0 | 63.8 |  |  |
| COc1ccccc1N1CCN(C(=O)COCC2CCCCN2S(=O)(=O)c2c(Cl)cccc2Cl)CC1 (stereo not shown) [Example 498, 2-((1-(2,6-dichlorophenylsulfonyl)piperidin-2-yl)methoxy)-1-(4-(2-methoxyphenyl)piperazin-1-yl)ethanone] | 96.7 | 94.2 |  |  |
| CN(C)c1ccc(C2CCCCCN2C(=O)COCC2CCCCN2S(=O)(=O)c2cccc3ccccc23)cc1 (stereo not shown) [Example 63, 1-[2-(4-dimethylamino-phenyl)-azepan-1-yl]-2-[1-(naphthyl-1-sulfonyl)-piperidin-2-ylmethoxy]-ethanone] |  |  | 26.41 | 58.57 |
| COc1cc(C)c(S(=O)(=O)N2CCCCC2COCC(=O)N2CCN(c3nc(-c4ccccc4)cs3)CC2)c(C)c1 (stereo not shown) [Example 402, 2-((1-(4-methoxy-2,6-dimethylphenylsulfonyl)piperidin-2-yl)methoxy)-1-(4-(4-phenylthiazol-2-yl)piperazin-1-yl)ethanone] | 101 | 47.1 |  |  |
| COc1ccc(N2CCN(C(=O)COCC3CCCN3S(=O)(=O)c3c(Cl)cccc3Cl)CC2)cc1 (stereo not shown) [Example 325, 2-((1-(2,6-dichlorophenylsulfonyl)pyrrolidin-2-yl)methoxy)-1-(4-(4-methoxyphenyl)piperazin-1-yl)ethanone] | 101 | 102 |  |  |
| COc1cc(C)c(S(=O)(=O)N2CCCCC2COCC(=O)N(Cc2ccccc2)c2cccc(C)n2)c(C)c1 (stereo not shown) [Example 508, N-benzyl-2-((1-(4-methoxy-2,6-dimethylphenylsulfonyl)piperidin-2-yl)methoxy)-N-(6-methylpyridin-2-yl)acetamide] | 103 | 31.9 |  |  |
| COc1cc(C)c(S(=O)(=O)N2CCCCC2COCC(=O)N2CCC(N3CCn4ccnc4C3)CC2)c(C)c1 (stereo not shown) [Example 144, 1-(4-(5,6-dihydroimidazo[1,2-a]pyrazin-7(8H)-yl)piperidin-1-yl)-2-((1-(4-methoxy-2,6-dimethylphenylsulfonyl)piperidin-2-yl)methoxy)ethanone] | 98.2 | 101 |  |  |
| Cc1ccc2[nH]c(C3CCN(C(=O)COCC4CCCCN4S(=O)(=O)c4c(Cl)cccc4Cl)CC3)nc2c1 (stereo not shown) [Example 487, 2-((1-(2,6-dichlorophenylsulfonyl)piperidin-2-yl)methoxy)-1-(4-(5-methyl-1H-benzo[d]imidazol-2-yl)piperidin-1-yl)ethanone] | 99.1 | 101 |  |  |
| COc1cc(C)c(S(=O)(=O)N2CCCCC2COCC(=O)N2CCC(Cc3cccnc3)C2)c(C)c1 (stereo not shown) [Example 208, 2-((1-(4-methoxy-2,6-dimethylphenylsulfonyl)piperidin-2-yl)methoxy)-1-(3-(pyridin-3-ylmethyl)pyrrolidin-1-yl)ethanone] | 101 | 105 |  |  |
| CN(CCC1CCC(N(C)C)CC1)C(=O)COCC1CCc2ccccc2N1S(=O)(=O)c1ccc(Cl)c(Cl)c1 (stereo not shown) [Example 213, 2-((1-(3,4-dichlorophenylsulfonyl)-1,2,3,4-tetrahydroquinolin-2-yl)methoxy)-N-(2-(4-(dimethylamino)cyclohexyl)ethyl)-N-methylacetamide] | 94.5 | 59.7 |  |  |
